Where two headings read alike, the source gives them in different places.
Assays:
[1] = system: Bacillus atrophaeus ATCC 9372 spores; settings: 28% hydrogen peroxide, 65° C.
Description: The mixture was then serially ten-fold diluted in saline and spread-plated on tryptic soy agar.

[2] = system: Bacillus atrophaeus ATCC 9372 spores; settings: conventional usage regime; cited from earlier work
[3] = system: Bacillus atrophaeus ATCC 9372 spores; test: Efficacy usage regimes of hydrogen peroxide and peracetic acid as compared to performic acid; type: cell-based; settings: performic acid regime per Table 3
Procedure: For example, temperatures greater than about 55° C. to 65° C. and exposure times greater than about fifteen seconds may be employed in conventional techniques.

Compound: OO [Hydrogen Peroxide, hydrogen peroxide]
- contact time per one logarithm of spore inactivation [1]: seven
- Efficacy usage regime: Temperature [2]: 65 °C
- Efficacy usage regime: Time [2]: 15 to 30 s

Compound: CC(=O)OO [Peracetic Acid, peracetic acid]
- Efficacy usage regime: Temperature [2]: 55 °C
- Efficacy usage regime: Time [2]: 15 s

Compound: performic acid
- Efficacy usage regime: Temperature [3]: Room Temperature
- Efficacy usage regime: Time [3]: 5 s

Reference: patent US9814796B2, “Methods for sterilization and/or disinfection” (P[…] OF NEVADA, LLC, priority 2015, dated 2017)
